Consider 4 compounds from US6444681B1, “Methods and compositions for treating Raynaud's Phenomenon and scleroderma” (The Ohio State University Research Foundation, priority 2000, dated 2002).

Assay [1] has as its target Mouse Tail Artery. The assay can be described thus: Antagonism of UK 14,304-induced vasoconstriction in isolated pressurised distal mouse tail artery. The class given is cell-based. The conditions noted are these: for Kd: versus UK 14,304, distal tail artery; for effect on vasoconstrictor response to UK 14,304: cold (28° C.), ARC 0239 50 nM, MK912 3×10^−10M; for effect on vasoconstrictor response to UK 14,304 / effect on vasoconstriction to the α2-AR agonist UK 14,304: BRL 44408 100 and 1000 nM; for effect on vasoconstriction to the α2-AR agonist UK 14,304: warm temperatures (37° C.), ARC 239 50 nM, MK 912 0.3 nM; for −log KD: n=4. An excerpt: Male mice (C57BL6) were euthanized by CO2 asphyxiation. Proximal and/or distal segments of tail artery were then rapidly removed and placed in cold Krebs-Ringer bicarbonate solution (in mM): 118.3 NaCl, 4.7 KCl, 1.2 MgSO4, 1.2 KH2PO4, 2.5 CaCl2, 25.0 NaHCO3, 11. glucose (control solution). The small arteries were cannulated at both ends with glass micropipettes, secured using 12-0 nylon monofilament suture and placed in a microvascuiar chamber (Living Systems, Burlington, Vt.). The arteries were maintained at a constant transmural pressure of 60 mmHg in the absence of flow. The chamber was superfused with control solution and maintained at 37° C., pH 7.4, and gassed with 16% O2-5% CO2-balance N2. The chamber was placed on the stage of an inverted microscope (X20, Nikon TMS-F, Japan) connected to a video camera (Panasonic, CCTV camera, Japan). The vessel image was projected onto a video monitor and the internal diameter continuously determined by a video dimension analyzer (Living Systems Instrumentation, Burlington Vt.) and monitored using a BIOPAC (Santa Barbara, Calif.) data acquisition system (Gateway Dimensions Pentium Computer).
Small arteries were allowed to equilibrate for 30-40 min at a transmural pressure (PTM) of 60 mmHg before addition of α1 and α2-AR agonists and antagonists. Concentration-effect curves to the selective α1-AR agonist, phenylephrine, or the selective α2-AR agonist, UK 14,304 (brimonidine, 5-bromo-N-(4,5-dihydro-1H-imidazol-2-yl)-6-quinoxalinamine) were generated by increasing the concentration of the agonists in half-log increments, once the constriction to the previous concentration had stabilized. Following completion of the concentration-effect curve, the influence of the agonists was terminated by repeatedly exchanging the buffer solution and allowing the artery to return to its stable baseline level.
To evaluate the effect of selective α2-AR antagonists on vasoconstriction, concentration-effect curves to UK 14,304 were determined under control conditions and in the presence of the selective α2A-AR antagonist, BRL 44408 (100 and 1000 nM), the selective α2B-AR antagonist ARC 0239 (50 nM) or the selective α2C-AR antagonist MK 912 (0.3 nM) (Table 1). When these receptor antagonists were used, the preparations were incubated for 30 min with the drugs prior to, and also during, exposure of the arteries to the agonists. When analyzing the influence of cold on α-AR responsiveness, the temperature of the superfusate was decreased to 28° C. for 30 min prior to commencing a concentration effect curve to the constrictor agonists. This provides sufficient time for the effect of cold on adrenergic reactivity to stabilize.
Vasomotor responses were expressed as a percentage change in internal diameter (ID) prior to administrating the agent. Because of the phasic behavior of the vasomotion in distal. tail arteries, the signal was electronically averaged (BIOPAC software, smoothing factor of 2000) in order to obtain diameter measurements. Functional data is expressed as means±SEM for n number of experiments, where n equals the number of animals from which blood vessels were studied. Antagonist dissociation constants (KD) were determined either from Arunlakshana and Schild plots or according to the formula: KD=[Ant]/(CR-1), where [Ant] is the concentration of antagonist, and CR the ratio of agonist-concentrations producing equal responses in the presence and absence of the antagonist. […] Statistical evaluation of the data was performed by Student's t-test for either paired or unpaired observations. When more than two means were compared, analysis of variance was used. If a significant F value was found, Scheffe's test for multiple comparisons was employed to identify differences among groups. Values were considered to be statistically different when P was less than 0.05.

Assay [2] concerns the target T1, α-2A (Homo sapiens, UniProt P08913).
T1 sequence (P08913 1-465): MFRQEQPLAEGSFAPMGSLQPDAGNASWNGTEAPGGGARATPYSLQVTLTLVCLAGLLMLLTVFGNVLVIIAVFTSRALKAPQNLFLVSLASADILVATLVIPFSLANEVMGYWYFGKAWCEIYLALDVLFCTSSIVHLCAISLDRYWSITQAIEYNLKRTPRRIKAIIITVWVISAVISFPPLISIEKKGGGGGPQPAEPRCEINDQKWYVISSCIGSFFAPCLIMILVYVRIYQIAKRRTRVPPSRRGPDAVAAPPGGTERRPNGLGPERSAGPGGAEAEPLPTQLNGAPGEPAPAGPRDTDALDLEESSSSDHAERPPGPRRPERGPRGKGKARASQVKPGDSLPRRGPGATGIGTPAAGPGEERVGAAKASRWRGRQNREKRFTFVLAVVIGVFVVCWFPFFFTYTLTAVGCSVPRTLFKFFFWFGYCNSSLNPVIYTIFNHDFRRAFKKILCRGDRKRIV
As to conditions: cited from earlier work.

Assay [3] concerns the target T2, α-2B (Homo sapiens, UniProt P18089).
T2 sequence (P18089 1-450): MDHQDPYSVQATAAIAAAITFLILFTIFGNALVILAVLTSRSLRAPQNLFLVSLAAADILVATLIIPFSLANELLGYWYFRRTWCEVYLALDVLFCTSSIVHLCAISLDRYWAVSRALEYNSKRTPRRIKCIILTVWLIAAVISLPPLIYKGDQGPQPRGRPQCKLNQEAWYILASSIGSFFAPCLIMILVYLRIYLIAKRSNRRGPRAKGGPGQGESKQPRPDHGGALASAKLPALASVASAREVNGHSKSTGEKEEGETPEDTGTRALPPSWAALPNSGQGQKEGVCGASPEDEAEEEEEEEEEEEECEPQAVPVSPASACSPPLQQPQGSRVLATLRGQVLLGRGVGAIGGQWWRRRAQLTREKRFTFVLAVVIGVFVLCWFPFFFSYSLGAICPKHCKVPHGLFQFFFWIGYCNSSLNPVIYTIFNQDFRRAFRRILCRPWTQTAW
The conditions noted are these: cited from earlier work.

The target in assay [4] is T3, α-2C (Homo sapiens, UniProt P18825).
T3 sequence (P18825 1-462): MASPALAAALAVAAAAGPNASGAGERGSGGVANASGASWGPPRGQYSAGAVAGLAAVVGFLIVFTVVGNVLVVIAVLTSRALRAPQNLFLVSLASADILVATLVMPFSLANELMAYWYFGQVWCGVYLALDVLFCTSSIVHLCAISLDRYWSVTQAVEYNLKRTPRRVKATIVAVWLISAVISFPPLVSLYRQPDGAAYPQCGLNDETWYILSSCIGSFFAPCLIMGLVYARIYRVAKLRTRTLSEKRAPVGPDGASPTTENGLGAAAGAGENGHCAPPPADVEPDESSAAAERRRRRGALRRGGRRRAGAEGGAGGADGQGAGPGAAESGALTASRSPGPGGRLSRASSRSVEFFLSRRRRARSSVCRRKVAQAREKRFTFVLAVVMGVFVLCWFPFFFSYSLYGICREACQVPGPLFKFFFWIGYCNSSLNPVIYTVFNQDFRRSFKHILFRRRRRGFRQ
The conditions noted are these: cited from earlier work.

Assay [5] concerns mouse tail arteries. Briefly: Agonist-induced vasoconstriction in isolated mouse tail artery, with influence of cold. The class given is cell-based. As to conditions: for constriction of proximal and distal segments of mouse tail arteries: 10^−9 to 3×10^−7M, 37° C.; for influence of cold on the constrictor response to the agonist: distal segments, 28° C. versus 37° C.
Protocol: Small arteries were allowed to equilibrate for 30-40 min at a transmural pressure (PTM) of 60 mmHg before addition of α1 and α2-AR agonists and antagonists. […] Following completion of the concentration-effect curve, the influence of the agonists was terminated by repeatedly exchanging the buffer solution and allowing the artery to return to its stable baseline level.
Vasomotor responses were expressed as a percentage change in internal diameter (ID) prior to administrating the agent. Because of the phasic behavior of the vasomotion in distal. tail arteries, the signal was electronically averaged (BIOPAC software, smoothing factor of 2000) in order to obtain diameter measurements. Functional data is expressed as means±SEM for n number of experiments, where n equals the number of animals from which blood vessels were studied. Antagonist dissociation constants (KD) were determined either from Arunlakshana and Schild plots or according to the formula: KD=[Ant]/(CR-1), where [Ant] is the concentration of antagonist, and CR the ratio of agonist-concentrations producing equal responses in the presence and absence of the antagonist. […] Statistical evaluation of the data was performed by Student's t-test for either paired or unpaired observations. […]
For assay [6], the system named is control and SSc arterioles. Briefly: Agonist-induced vasoconstriction in human dermal arterioles from control and SSc subjects. The class given is cell-based. The conditions noted are these: for Emax: Homo sapiens; for constriction: 1 μM of the agonist. An excerpt: Skin biopsies (6 mm punch) were obtained from the same location on the medial aspect on the upper arm of patients and control subjects. Eleven patients with diffuse cutaneous SSc were studied: nine female and two male. Their average age was 49 years old (range 33 to 69) and they had SSc for an average of 4 years (range 1 to 9 years from first physician diagnosis of SSc). SSc patients were recruited from the Johns Hopkins and University of Maryland Scleroderma Center. All patients met the American College of Rheumatology criteria for a diagnosis of SSc. Biopsy of the skin was performed in the upper arm in an area considered to have normal skin thickness determined by clinical palpation (clinically-uninvolved skin). Patients with overlap syndromes (e.g. lupus) were excluded. Patient medications varied between individuals: anti-inflammatory /immunosuppressant, 4 patients on prednisone, 1 on methotrexate, 1 on cyclophosphamide, and 1 on D-penicillamine; gastrointestinal, 5 on omeprazole, 3 on cisapride, 2 on ranitidine, 1 on lansoprazole; angiotensin converting enzyme inhibitors, 3 on enalapril, 1 on lisinopril; angiotensin receptor antagonists, 1 on losartin, 1 on valsartin; calcium antagonists, 2 on nifedipine, 1 on verapamil, 1 on amlodipine, 1 on diltiazem; α1-adrenergic receptor antagonists, 1 on terazosin. Vasoconstrictor responses to the α1-adrenergic receptor (α1-AR) agonist, phenylephrine, were not included for the patient receiving terazosin. Eight normal subjects were analyzed: six female and two males with an average age of 50 years old (range 38 to 62). All patients and volunteers gave informed consent and the study was approved by the Johns Hopkins University human subjects IRB committee.
Arterioles were dissected from the deep dermal plexus of the biopsies and any side branches tied. […] The arterioles were cannulated with glass micropipettes and placed in a microvessel chamber as previously describe. The arterioles were maintained in no-flow state at a constant transmural pressure (PTM)of 40 mmHg. The chamber was superfused with buffer solution (37° C., pH 7.4, gassed with 16% O2-5% CO2-balance N2) and placed on stage of an inverted microscope for continuous monitoring of internal diameter using a video camera and video dimension analyzer.
Vasoconstriction was assessed in response to: i) KCl (15 to 60 mM), ii) the selective α1-AR agonist, phenylephrine (0.01 to 1 μM) (SIGMA, St Louis, Mo.), or iii) the selective α2-AR agonist, UK 14,304 (1 to 100 nM) (brimonidine, 5-bromo-N-(4,5-dihydro-1H-imidazol-2-yl)-6-quinoxalinamine, RBI, Natick, Mass.). Responses to UK 14,304 were also evaluated following denudation of the endothelium, achieved by carefully placing a wire (70μdiameter) through the vessel lumen. Endothelium-removal was confirmed by histology and by loss of response to the endothelial stimuli acetylcholine or bradykinin.
Responses were expressed as a percentage change in baseline diameter. Data is expressed as means±SEM for n number of experiments, where n equals the number of subjects from which blood vessels were studied. Concentration-effect curves were analyzed by comparing: i) maximal responses (vasoconstriction or dilatation), and ii) the area under the curve (AUC). Statistical evaluation of the data was performed using paired or unpaired t-tests. Responses were considered to be statistically different when P was less than 0.05.

[7] abbreviates: 28° C. (cold), read-out: KD Mouse Tail Artery 28° C.
The mark [8] stands for this setting: 37° C. (warm), read-out: KD Mouse Tail Artery 37° C.

Like-named read-outs stand apart in the source and are kept apart here.

One may read the Kd as the concentration at which binding is half-saturated.

For the compound `COc1ccccc1N1CCN(CCN2C(=O)c3ccccc3C(C)(C)C2=O)CC1` [ARC 239], the Kd in assay [1] (setting [7]) is above 50 nM; in assay [1] (setting [8]) it was above 50 nM; in assay [2], 256 nM; in assay [3], 4.6 nM; in assay [4], 51 nM. In assay [1] (based on the Table 1 KD, antagonist at 50 nM), the “expected shift in concentration-effect curves generated by α2B-AR stimulation” value is given as around 10 fold. Also, the “effect on vasoconstrictor response to UK 14,304” value in assay [1] is recorded as “not inhibited”. Moreover, the “effect on vasoconstriction to the α2-AR agonist UK 14,304” value in assay [1] is reported as “not inhibited”.
As to `CC1c2ccccc2CN1CC1=NCCN1` (stereo not shown) [BRL 44408], the “−log KD” value worked out at 7.54 ± 0.10 in assay [1] (28° C. (cold)); 7.69±0.13 in assay [1] (37° C., Arunlakshana and Schild plot). For the same compound, the Kd in assay [1] (setting [7]) is 29 nM; in assay [1] (setting [8]), 20 nM; in assay [2] it was 13 nM; in assay [3], 174 nM; in assay [4], 187 nM. The “effect on cold-induced amplification of the α2-AR response” value in assay [1] (28° C. versus 37° C., UK 14,304) is “did not reduce”. For the same compound, the “effect on vasoconstrictor response to UK 14,304” value in assay [1] is on record as “reduced”. The “effect on vasoconstriction to the α2-AR agonist UK 14,304” value in assay [1] is reported as “inhibited”.
In the case of `Brc1c(NC2=NCCN2)ccc2nccnc12` [UK 14,304, 5-bromo-N-(4,5-dihydro-1H-imidazol-2-yl)-6-quinoxalinamine], the “constriction of proximal and distal segments of mouse tail arteries” value in assay [5] is on record as “caused concentration-dependent constriction”. In assay [5], the “influence of cold on the constrictor response to the agonist” value was “dramatically and reversibly increased”. Besides, the Emax in assay [6] (SSc arterioles with endothelium, 1-100 nM, read-out: maximal response to the agonist (constriction)) was 67 ± 4%; in assay [6] (control arterioles with endothelium, 1-100 nM, read-out: maximal response to the agonist (constriction)), 25 ± 5%; in assay [6] (endothelium-denuded SSc arterioles, read-out: maximal response (constriction)), 67 ± 10%; in assay [6] (endothelium-denuded control arterioles, read-out: maximal response (constriction)), 25 ± 7%.
In the case of `CNC[C@H](O)c1cccc(O)c1` [phenylephrine], in assay [5], the “constriction of proximal and distal segments of mouse tail arteries” value was “caused concentration-dependent constriction”; the “influence of cold on the constrictor response to the agonist” value was “did not affect”. In assay [6] (SSc arterioles), this compound registered a constriction of 45±7%. Further, the constriction in assay [6] (control arterioles) is on record as 45±8%.
